What was measured:
TCRV-p = assay: organism not typed; assay type: cell-based; settings: Vero, 24 h, read-out: TCRV-p EC50 (nM)
MACV-p = assay: organism not typed; assay type: cell-based, Machupo (MACV); settings: Vero, 24 h, read-out: MACV-p EC50 (nM)
in vitro = settings: African green monkey
JUNV-p = assay: organism not typed; assay type: cell-based, Junin (JUNV); settings: Vero, 24 h, read-out: JUNV-p EC50 (nM)
LASV-p = assay: organism not typed; assay type: cell-based, Lassa (LASV); settings: Vero, 24 h, read-out: LASV-p EC50 (nM)
GTOV-p = assay: organism not typed; assay type: cell-based, Guanarito (GTOV); settings: Vero, 24 h, read-out: GTOV-p EC50 (nM)

Compound | EC50 (TCRV-p) [nM] | EC50 (MACV-p) [nM] | CC50 (in vitro) [nM] | EC50 (JUNV-p) [nM] | EC50 (LASV-p) [nM] | EC50 (GTOV-p) [nM]
COc1ccc(-n2cnc3ccc(-c4ccc(CO)cc4)cc32)cc1 [Example A10, {4-[1-(4-methoxyphenyl)-1H-1,3-benzodiazol-6-yl]phenyl}methanol] | > 25 | > 25 | 4560 | > 25 | 21.8 | 
COc1ccc(-n2cnc3ccc(-c4ccc(O)cc4)cc32)cc1 [Example A13, 4-[1-(4-methoxyphenyl)-1H-1,3-benzodiazol-6-yl]phenol] | > 25 | > 25 | 1270 | > 25 | 5 | 
COc1ccc(-n2cnc3ccc(-c4ccc(C(C)=O)cc4)cc32)cc1 [Example A14, 1-{4-[1-(4-methoxyphenyl)-1H-1,3-benzodiazol-6-yl]phenyl}ethan-1-one] | > 25 | > 25 | 1950 | > 25 | 7.4 | 
COc1ccc(-n2cnc3ccc(-c4ccc(N5CCCCC5)cc4)cc32)cc1 [Example A15, 1-(4-methoxyphenyl)-6-[4-(piperidin-1-yl)phenyl]-1H-1,3-benzodiazole] | 29.6 | 24.9 | 12900 | 2.23 | 14.7 | 
CC(C)Oc1ccc(-n2cnc3ccc(-c4ccc(N5CCOCC5)cc4)cc32)cc1 [Example A21, 6-[4-(morpholin-4-yl)phenyl]-1-[4-(propan-2-yloxy)phenyl]-1H-1,3-benzodiazole] | > 25 | 14.4 | 5220 | 3.5 | 3.07 | 
CC(=O)c1ccc(-c2ccc3ncn(-c4ccc(OC(C)C)cc4)c3c2)cc1 [Example A26, 1-(4-{1-[4-(propan-2-yloxy)phenyl]-1H-1,3-benzodiazol-6-yl}phenyl)ethan-1-one] | 1.45 | 0.7 | 7520 | 0.81 | 0.59 | 0.73
CC(C)Oc1ccc(-c2ccc3ncn(-c4ccc5[nH]ccc5c4)c3c2)cc1 [Example A27, 1-(1H-indol-5-yl)-6-[4-(propan-2-yloxy)phenyl]-1H-1,3-benzodiazole] | 2.57 | 0.38 | 3860 | 0.39 | 0.6 | 
CC(C)Oc1ccc(-n2cnc3ccc(-c4ccc5[nH]ccc5c4)nc32)cc1 [Example B3, 5-{3-[4-(propan-2-yloxy)phenyl]-3H-imidazo[4,5-b]pyridin-5-yl}-1H-indole] | 27.7 | 10.3 | > 100000 | 1.79 | 1.01 | 
CC(=O)c1ccc(-c2ccc3ncn(-c4ccc(OC(C)C)cc4)c3n2)cc1 [Example B4, 1-(4-{3-[4-(propan-2-yloxy)phenyl]-3H-imidazo[4,5-b]pyridin-5-yl}phenyl)ethan-1-one] | 14.9 | 18.6 | 19700 | 4.31 | 0.956 | 
CC(C)Oc1ccc(-n2cnc3cnc(-c4ccc5[nH]ccc5c4)cc32)cc1 [Example B7, 5-{1-[4-(propan-2-yloxy)phenyl]-1H-imidazo[4,5-c]pyridin-6-yl}-1H-indole] | > 25 | 24.1 | 13900 | 16.2 | 8.18 | 
CC(C)Oc1ccc(-n2cnc3cnc(-c4ccc(C(C)(C)O)cc4)nc32)cc1 [Example B9, 2-(4-{9-[4-(propan-2-yloxy)phenyl]-9H-purin-2-yl}phenyl)propan-2-ol] | > 25 | 29.7 | 27700 | 11.9 | 19.7 | 
CC(C)Oc1ccc(-n2cnc3cnc(-c4ccc5[nH]ccc5c4)nc32)cc1 [Example B11, 2-(1H-indol-5-yl)-9-[4-(propan-2-yloxy)phenyl]-9H-purine] | > 25 | 25 | 24200 | 25 | 6.4 | 
CC(=O)c1ccc(-c2ccc3nnn(-c4ccc(OC(C)C)cc4)c3c2)cc1 [Example B14, 1-(4-{1-[4-(propan-2-yloxy)phenyl]-1H-1,2,3-benzotriazol-6-yl}phenyl)ethan-1-one] | > 25 | 15.4 | 7390 | 1.36 | 1.05 | 
CC(C)Oc1ccc(-c2cnc3ccc(-c4ccc(C(F)F)cc4)cn23)cc1 [Example C5, 6-[4-(difluoromethyl)phenyl]-3-[4-(propan-2-yloxy)phenyl]imidazo[1,2-a]pyridine] | > 25 | 31.4 | 4690 | 9.09 | 4.1 | 
CC(C)Oc1ccc(-c2cnc3ccc(-c4ccc5[nH]ncc5c4)cn23)cc1 [Example C10, 5-{3-[4-(propan-2-yloxy)phenyl]imidazo[1,2-a]pyridin-6-yl}-1H-indazole] | > 25 | 28.9 | > 100 | 19 | 4.61 | 
CC(C)Oc1ccc(-c2cnc3ccc(-c4ccc5c(ccn5C)c4)cn23)cc1 [Example C22, 1-methyl-5-{3-[4-(propan-2-yloxy)phenyl]imidazo[1,2-a]pyridin-6-yl}-1H-indole] | 4.94 | 0.335 | 24400 | 0.415 | 2.33 | 0.45
CC(C)Oc1ccc(-c2cnc3ccc(-c4ccc(C5(O)COC5)cc4)cn23)cc1 [Example C28, 3-(4-{3-[4-(propan-2-yloxy)phenyl]imidazo[1,2-a]pyridin-6-yl}phenyl)oxetan-3-ol] | > 25 | > 25 | > 100000 | 14.9 | 17.3 | 
CC(C)Oc1ccc(-c2ccc3ncc(-c4ccc(C(C)(C)O)cc4)n3c2)cc1 [Example C38, 2-(4-{6-[4-(propan-2-yloxy)phenyl]imidazo[1,2-a]pyridin-3-yl}phenyl)propan-2-ol] | 1.77 |  |  |  | 0.84 | 0.2
COCCOc1ccc(-c2cnc3ccc(-c4ccc(OC(C)C)cc4)cn23)cc1 [Example C42, 3-[4-(2-methoxyethoxy)phenyl]-6-[4-(propan-2-yloxy)phenyl]imidazo[1,2-a]pyridine] | 11.7 | 23.1 | 5360 | 2.6 | 3.08 | 
CC(C)Oc1ccc(-c2ccc3ncc(-c4ccc(C5(O)CC5)cc4)n3c2)cc1 [Example C44, 1-(4-{6-[4-(propan-2-yloxy)phenyl]imidazo[1,2-a]pyridin-3-yl}phenyl)cyclopropan-1-ol] | 0.135 | 0.32 | > 100 | 0.07 | 0.23 | 
CC(C)Oc1ccc(-n2ncc3ccc(-c4ccc5[nH]ccc5c4)cc32)cc1 [Example D2, 6-(1H-indol-5-yl)-1-[4-(propan-2-yloxy)phenyl]-1H-indazole] | > 25 | 22.5 | 4340 | 17.8 | 7.99 | 
CC(=O)c1ccc(-c2ccc3cnn(-c4ccc(OC(C)C)cc4)c3c2)cc1 [Example D3, 1-(4-{1-[4-(propan-2-yloxy)phenyl]-1H-indazol-6-yl}phenyl)ethan-1-one] | > 25 | 15.5 | 15900 | 20.2 | 7.04 | 
CC(C)Oc1ccc(-n2ccc3ccc(-c4ccc5[nH]ccc5c4)cc32)cc1 [Example D5, 6-(1H-indol-5-yl)-1-[4-(propan-2-yloxy)phenyl]-1H-indole] | > 25 | > 25 | 5.87 | 27.8 | 12.5 | 
CC(C)Oc1ccc(-c2nnc3ccc(-c4ccc5[nH]ccc5c4)cn23)cc1 [Example D7, 5-{3-[4-(propan-2-yloxy)phenyl]-[1,2,4]triazolo[4,3-a]pyridin-6-yl}-1H-indole] | 26.3 | > 25 | 1870 | 18 | 4.1 | 
CC(C)Oc1ccc(-c2cn3c(-c4ccc5[nH]ccc5c4)cnc3cn2)cc1 [Example D13, 5-{6-[4-(propan-2-yloxy)phenyl]imidazo[1,2-a]pyrazin-3-yl}-1H-indole] | 10.3 | 12 | > 100000 | 3.29 | 12.3 | 
CC(C)Oc1ccc(-c2ccc3noc(-c4ccc(OC(C)C)cc4)c3c2)cc1 [Example D18, 3,5-bis[4-(propan-2-yloxy)phenyl]-2,1-benzoxazole] | > 25 | > 25 | > 100000 | 5.58 | > 25 | 
CC(C)Oc1ccc(-c2ccn3cnc(-c4ccc(OC(C)C)cc4)c3c2)cc1 [Example D19, 1,7-bis[4-(propan-2-yloxy)phenyl]imidazo[1,5-a]pyridine] | > 25 | > 25 | 7540 | > 25 | > 25 | 
CC(C)Oc1ccc(-c2ccc3nc(C(N)=O)c(-c4ccc(OC(C)C)cc4)n3c2)cc1 [Example D22, 3,6-bis[4-(propan-2-yloxy)phenyl]imidazo[1,2-a]pyridine-2-carboxamide] | > 25 | > 25 | 49500 | > 25 | > 25 | 
CC(C)Oc1ccc(-c2ccc3nc(C#N)c(-c4ccc(OC(C)C)cc4)n3c2)cc1 [Example D23, 3,6-bis[4-(propan-2-yloxy)phenyl]imidazo[1,2-a]pyridine-2-carbonitrile] | > 25 | > 25 | > 100000 | 3.78 | 27.4 | 
